Results from patent publication US4293713A, “Novel 1,1,3,5-substituted biuret compound and a pharmaceutical composition containing the same” (priority 1979, dated 1981).
Read-outs that look alike come from different tables or passages of the source.

Experiments:
[1] = system: Wistar strain of male rats; test: Anti-inflammatory activity, acute carrageenin-induced inflammatory test; type: in vivo, rat (Wistar strain; conditions: Rattus norvegicus
Experimental: (§1) Next, several tests for determining the pharmacological properties, in that acute toxicity, anti-pyretic activity, analgesic activity and anti-inflammatory activity of the present 1,1,3,5-substituted biuret compounds of the formula (1) were conducted and the test results are shown in Table (2). In the tests, each compounds to be tested was used as a suspension in 0.25% carboxymethylcellulose solution. Methods for testing are explained as follows:
According to the method of acute carrageenin-induced inflammatory test [Folia Pharmacologia Japonica, Vol. 56, pp. 575 (1960)], the Wistar strain of male rats (body weight, 150-180 g) were used as test animals. The rats were fasted overnight, 100 mg/kg body weight of the test compound was administered orally, then 1 hour after the administration, 0.1 ml of 1% carrageenin solution, as the inflammation inducing agent, was injected subcutaneously to the hindpaw of the rat and the volume of the hindpaw was measured at time sequences. Anti-inflammatory activity of the test compound was calculated as inflammation inhibitory ratio (%) at 3 hours after the injection of the inflammation inducing agent.

[2] = system: Wistar strain of male rats; test: Anti-pyretic activity (dry-yeast induced fever); type: in vivo, rat (Wistar strain; conditions: oral, up to 4 hours after administration, dose not given
Experimental: as §1
According to the method reported by Tanabe [Folia Pharmacologia Japonica, Vol. 73, pp. 803 (1977)], the Wistar strain of male rats (150-180 g body weight) were used as test animals. The rats were fasted overnight, and 1 ml/100 g (body weight) of 10% dry-yeast suspension were subcutaneously injected on the back of the rats. Five hours after the injection, the test compound was administered orally, then the body temperature of the rat was measured at time sequences. Anti-pyretic activity of the test compound was determined as the FI (febril index) by integrating pyrogenetic curve up to 4 hours after the administration of the test compound with time, and indicated as inhibitory ratio (%) shown by the following formula, [formula]

[3] = Acute toxicity (oral, 7 days observation); type: in vivo; conditions: mouse, in vivo, read-out: Acute toxicity, 50% lethal dose, LD50 (values with Δ marks)
Experimental: as §1
(§2) The ddy strain of male mice (body weight, 20-25 g) were used as test animals. The mice were fasted overnight and the compound to be tested was administered orally. […] The lethal dose (mg/kg, body weight) of the test compound was determined in connection with the death number of mice/the number of mice tested. In Table 2, the values indicated with Δ marks are 50% lethal dose, LD50 (mg/kg, body weight).

ddy strain of male mice [4] = test: Analgesic activity, Haffner method; type: in vivo, mouse (ddy strain; conditions: with threshold morphine hydrochloride s.c.; for Analgesic activity, Haffner method, 50% effective dose, ED50 (values with Δ marks): oral, range in parentheses
Experimental: as §1
According to the modified method reported by Fujimura et al., [Bulletin of the Institute for Chemical Research, Kyoto University, No. 25, pp. 36 (1951)], the ddy strain of male mice (body weight, 20-25 g) were used as test animals. The mice were fasted overnight, 100 mg/kg body weight of the test compound was administered orally, then 45 minutes after the administration, the threshold amount (1.5-2.5 mg/kg body weight) of morphine hydrochloride was injected subcutaneously. Then 1-hour pain reaction of the mouse caused by a clamp was observed. Analgesic activity of the test compound was calculated as the inhibitory ratio (%). In Table 2, the values in parentheses show the data obtained from the test by using the dosage other than 100 mg/kg body weight. Further, the values indicated with Δ marks show 50% effective dose, ED50 (mg/kg body weight).

ddy strain of male mice [5] = test: Analgesic activity, acetic acid-induced stretching method; type: in vivo, mouse (ddy strain; conditions: Mus musculus; for ED50: read-out: Analgesic activity, acetic acid-induced stretching method, 50% effective dose, ED50 (values with Δ marks)
Experimental: as §1
According to the method reported by Koster et al., [Fed. Proc., Vol. 18, pp. 412 (1959)], the ddy strain of male mice (body weight, 20-25 g) were used as test animals. The mice were fasted overnight, 100 mg/kg body weight of the test compound was administered orally, then 1 hour after the administration, 0.2 ml of 0.7% acetic acid solution was injected intraperitoneally. The acetic acid-induced stretching symptom of mouse was observed. Analgesic activity of the test compound was calculated as the inhibitory ratio (%). In Table 2, the values in Parentheses show the data obtained from the test by using the dosage other than 100 mg/kg body weight. Further, the values indicated with Δ marks show 50% effective dose, ED50 (mg/kg body weight).

ddy strain of male mice [6] = test: Acute toxicity (oral, 7 days observation); type: in vivo; conditions: oral, mice, 7 days
Experimental: as §1, §2

[7] = po, 3 h, read-out: Anti-inflammatory activity, inflammation inhibitory ratio
[8] = 100 mg/kg oral, rats, 3 hours after carrageenin, read-out: Anti-inflammatory activity, inflammation inhibitory ratio
[9] = po, read-out: Analgesic activity, acetic acid-induced stretching method, inhibitory ratio
[10] = po, 2 h, read-out: Anti-inflammatory activity, inflammation inhibitory ratio (2 hours value)
[11] = 100 mg/kg oral, rats, 2 hours value, read-out: Anti-inflammatory activity, inflammation inhibitory ratio (2 hours value)
[12] = 100 mg/kg oral, mice, read-out: Analgesic activity, acetic acid-induced stretching method, inhibitory ratio

SMILES	inhibition in vivo at 100 mg/kg [1, 7] [%]	Anti-pyretic activity, inhibitory ratio of febril index (FI) [2] [%]	LD50 at 168 h ([3]; oral, mice, 7 days) [mg/kg]	Analgesic activity, Haffner method, inhibitory ratio (ddy strain of male mice [4]; 100 mg/kg oral) [%]	inhibition in vivo at 100 mg/kg (ddy strain of male mice [5]; [9]) [%]	also measured
CN(C)C(=O)N(C)C(=O)Nc1ccccc1 [Compound No. 1, 1,1,3-Trimethyl-5-phenylbiuret]	59	80	1710	–	–	Analgesic activity, Haffner method, 50% effective dose, ED50 (values with Δ marks) (ddy strain of male mice [4]): 68(52-88) mg/kg; ED50 (ddy strain of male mice [5]; po): 75 mg/kg
CN(C)C(=O)N(C)C(=O)Nc1ccc(F)cc1 [Compound No. 3, 1,1,3-Trimethyl-5-(4-fluorophenyl)biuret]	–	61	930	62.5	87.5	inhibition in vivo at 100 mg/kg [1, 8]: 37%
CN(C)C(=O)N(C)C(=O)Nc1ccc(Cl)cc1 [Compound No. 7, 1,1,3-trimethyl-5-p-chlorophenylbiuret]	47	84	1200	–	–	Analgesic activity, Haffner method, 50% effective dose, ED50 (values with Δ marks) (ddy strain of male mice [4]): 20(11-35) mg/kg; ED50 (ddy strain of male mice [5]; po): 12 mg/kg
CN(C)C(=O)N(C)C(=O)Nc1ccc(Br)cc1 [Compound No. 11, 1,1,3-Trimethyl-5-(4-bromophenyl)biuret]	–	103	1350	–	–	inhibition in vivo at 100 mg/kg [1, 10]: 48%; Analgesic activity, Haffner method, 50% effective dose, ED50 (values with Δ marks) (ddy strain of male mice [4]): 74(49-113) mg/kg; ED50 (ddy strain of male mice [5]; po): 60 mg/kg
COc1ccc(NC(=O)N(C)C(=O)N(C)C)cc1 [Compound No. 17, 1,1,3-Trimethyl-5-(4-methoxyphenyl)biuret]	33	75	1800	–	–	Analgesic activity, Haffner method, 50% effective dose, ED50 (values with Δ marks) (ddy strain of male mice [4]): 42 to 153 mg/kg; ED50 (ddy strain of male mice [5]; po): 39 mg/kg
CN(C)C(=O)N(C)C(=O)Nc1cccc(Cl)c1 [compound 6, 1,1,3-Trimethyl-5-(3-chlorophenyl)biuret]	–	43	1480	–	62.5	inhibition in vivo at 100 mg/kg [1, 10]: 30%; Analgesic activity, Haffner method, inhibitory ratio (ddy strain of male mice [4]; 200 mg/kg oral): 75%
CN(C)C(=O)N(C)C(=O)Nc1c(Cl)cccc1Cl [compound 9, 1,1,3-Trimethyl-5-(2,6-dichlorophenyl)biuret]	–	29	1100	50	50	inhibition in vivo at 100 mg/kg [1, 8]: 25%
CN(C)C(=O)N(C)C(=O)Nc1cccc(C(F)(F)F)c1 [compound 13, 1,1,3-Trimethyl-5-(3-trifluoromethylphenyl)biuret]	–	62	–	–	37.5	inhibition in vivo at 100 mg/kg [1, 10]: 32%; Acute toxicity, death number of mice/number of mice tested (ddy strain of male mice [6]; 1000 mg/kg): 0/4; Acute toxicity, death number of mice/number of mice tested (ddy strain of male mice [6]; 2000 mg/kg): 4/4; Analgesic activity, Haffner method, 50% effective dose, ED50 (values with Δ marks) (ddy strain of male mice [4]): 64(37-112) mg/kg
CN(C)C(=O)N(C)C(=O)Nc1ccc(N(C)C)cc1 [compound 14, 1,1,3-Trimethyl-5-(4-dimethylaminophenyl)biuret]	–	26	–	50	62.5	inhibition in vivo at 100 mg/kg [1, 11]: 32%; Acute toxicity, death number of mice/number of mice tested (ddy strain of male mice [6]; 2000 mg/kg): 0/4
CN(C)C(=O)N(C)C(=O)Nc1ccc([N+](=O)[O-])cc1 [compound 15, 1,1,3-Trimethyl-5-(4-nitrophenyl)biuret]	32	26	–	50	–	Acute toxicity, death number of mice/number of mice tested (ddy strain of male mice [6]; 500 mg/kg): 2/4; inhibition in vivo at 100 mg/kg (ddy strain of male mice [5]; [12]): 100%
COc1ccccc1NC(=O)N(C)C(=O)N(C)C [compound 16, 1,1,3-Trimethyl-5-(2-methoxyphenyl)biuret]	–	13	–	25	37.5	inhibition in vivo at 100 mg/kg [1, 11]: 35%; Acute toxicity, death number of mice/number of mice tested (ddy strain of male mice [6]; 1000 mg/kg): 0/4; Acute toxicity, death number of mice/number of mice tested (ddy strain of male mice [6]; 2000 mg/kg): 2/4
Cc1ccccc1NC(=O)N(C)C(=O)N(C)C [compound 20, 1,1,3-Trimethyl-5-(2-methylphenyl)biuret]	29	41	1000	50	37.5	–
Cc1cccc(NC(=O)N(C)C(=O)N(C)C)c1 [compound 21, 1,1,3-Trimethyl-5-(3-methylphenyl)biuret]	28	31	–	37.5	75	Acute toxicity, death number of mice/number of mice tested (ddy strain of male mice [6]; 2000 mg/kg): 2/4
Cc1cccc(C)c1NC(=O)N(C)C(=O)N(C)C [compound 24, 1,1,3-Trimethyl-5-(2,6-dimethylphenyl)biuret]	–	69	595	37.5	75	–
CC(=O)c1ccc(NC(=O)N(C)C(=O)N(C)C)cc1 [compound 27, 1,1,3-Trimethyl-5-(4-acetylphenyl)biuret]	–	36	–	37.5	–	inhibition in vivo at 100 mg/kg [1, 10]: 31%; Acute toxicity, death number of mice/number of mice tested (ddy strain of male mice [6]; 500 mg/kg): 0/4; Acute toxicity, death number of mice/number of mice tested (ddy strain of male mice [6]; 1000 mg/kg): 4/4; inhibition in vivo at 100 mg/kg (ddy strain of male mice [5]; [12]): 62.5%
CN(C)C(=O)N(C)C(=O)NC1CCCCC1 [compound 29, 1,1,3-Trimethyl-5-cychlohexylbiuret]	–	–	–	25	–	inhibition in vivo at 100 mg/kg [1, 11]: 24%; LD50 at 168 h ([3]; po): 1450 mg/kg; inhibition in vivo at 200 mg/kg (ddy strain of male mice [5]; [9]): 87.5%
CCN(C)C(=O)N(C)C(=O)Nc1ccccc1 [compound 33, 1-Ethyl-1,3-dimethyl-5-phenylbiuret]	–	49	1290	–	–	inhibition in vivo at 100 mg/kg [1, 8]: 34%; inhibition in vivo at 80 mg/kg (ddy strain of male mice [5]; [9]): 50%
